The text below walks through data of patent publication US20110201564A1, “SUBSTITUTED 7-SULFANYLMETHYL, 7-SULFINYLMETHYL AND 7-SULFONYLMETHYL INDOLES AND USE THEREOF” (BAYER SCHERING PHARMA AKTIENGESELLSCHAFT, priority 2008, published 2011).

What all share (format): cell-based
The target of assay [1] is T1, human mineralocorticoid receptor (MR) (Homo sapiens, UniProt P08235).
T1 construct: expressed in transfected cells; host or cells: CHO K1
T1 sequence (P08235 734-984 limits assumed): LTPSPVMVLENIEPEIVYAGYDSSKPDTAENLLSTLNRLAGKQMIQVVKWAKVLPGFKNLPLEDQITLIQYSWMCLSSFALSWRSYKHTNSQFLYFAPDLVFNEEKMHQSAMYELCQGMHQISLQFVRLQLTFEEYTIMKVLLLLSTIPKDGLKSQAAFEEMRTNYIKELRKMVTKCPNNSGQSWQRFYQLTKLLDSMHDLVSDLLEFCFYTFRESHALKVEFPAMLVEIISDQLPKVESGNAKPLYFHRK
The assay can be described thus: Cellular in vitro assay, GAL4-MR chimera luciferase reporter in CHO K1 cells (inhibitory MR activity). Conditions: antagonism vs aldosterone; CHO K1 GAL4-MR LBD luciferase reporter. The text has this: (§1) 1. Cellular In Vitro Assay to Determine the Inhibitory MR Activity and MR Selectivity Compared with Other Steroid Hormone Receptors
(§2) Antagonists of the human mineralocorticoid receptor (MR) are identified, and the activity of the compounds described herein is quantified with the aid of a recombinant cell line. The cell is originally derived from a hamster ovary epithelial cell (Chinese Hamster Ovary, CHO K1, ATCC: American Type Culture Collection, VA 20108, USA).
(§3) An established chimera system in which the ligand-binding domains of human steroid hormone receptors are fused to the DNA-binding domain of the yeast transcription factor GAL4 is used in this CHO K1 cell line. The GAL4-steroid hormone receptor chimeras produced in this way are cotransfected and stably expressed with a reporter construct in the CHO cells.
(§4) To generate the GAL4-steroid hormone receptor chimeras, the GAL4 DNA-binding domain (amino acids 1-147) from the vector pFC2-dbd (from Stratagene) is cloned with the PCR-amplified ligand-binding domains of the mineralocorticoid receptor (MR, amino acids 734-985), of the progesterone receptor (PR, amino acids 680-933) and of the androgen receptor (AR, amino acids 667-919) into the vector pIRES2 (from Clontech). The reporter construct, which comprises five copies of the GAL4 binding site upstream of a thymidine kinase promoter, leads to expression of firefly luciferase (Photinus pyralis) after activation and binding of the GAL4-steroid hormone receptor chimeras by the respective specific agonists aldosterone (MR), dexamethasone (GR), progesterone (PR) and dihydrotestosterone (AR).
(§5) The MR, PR and AR cells are plated out in medium (Optimem, 2.5% FCS, 2 mM glutamine, 10 mM HEPES) in 96- (or 384- or 1536-)well microtiter plates on the day before the assay and are kept in a cell incubator (96% humidity, 5% v/v CO2, 37° C.). On the day of the assay, the substances to be tested are taken up in the abovementioned medium and added to the cells. About 10 to 30 minutes after addition of the test substances, the respective specific agonists of the steroid hormone receptors are added. After a further incubation time of 5 to 6 hours, the luciferase activity is measured with the aid of a video camera. The measured relative light units as a function of the substance concentration result in a sigmoidal stimulation curve. The IC50 values are calculated with the aid of the GraphPad PRISM computer program (Version 3.02).
For orientation: Reporter assays use an easily measured gene product as a stand-in for the process of interest.

A further assay concerns the target T2, androgen receptor (AR) (Homo sapiens, UniProt P10275).
T2 construct: of the androgen receptor (AR, amino acids 667-919); expressed in transfected cells; host or cells: CHO K1
T2 sequence (P10275 668-920): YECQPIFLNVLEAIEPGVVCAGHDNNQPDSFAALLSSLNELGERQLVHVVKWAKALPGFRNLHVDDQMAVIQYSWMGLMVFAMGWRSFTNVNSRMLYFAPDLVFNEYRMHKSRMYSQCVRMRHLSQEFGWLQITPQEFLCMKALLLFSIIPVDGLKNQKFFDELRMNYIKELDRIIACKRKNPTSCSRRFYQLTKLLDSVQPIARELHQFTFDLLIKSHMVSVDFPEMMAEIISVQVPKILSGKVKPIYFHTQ
The assay can be described thus: Cellular in vitro assay, GAL4-AR chimera luciferase reporter in CHO K1 cells (selectivity). The note with it: antagonism vs dihydrotestosterone; CHO K1 GAL4-AR LBD luciferase reporter.
Description: as §1, §2, §3, §4, §5

In assay [2] the target is T3, progesterone receptor (PR) (Homo sapiens, UniProt P06401).
T3 construct: of the progesterone receptor (PR, amino acids 680-933); expressed in transfected cells; host or cells: CHO K1
T3 sequence (P06401 680-933): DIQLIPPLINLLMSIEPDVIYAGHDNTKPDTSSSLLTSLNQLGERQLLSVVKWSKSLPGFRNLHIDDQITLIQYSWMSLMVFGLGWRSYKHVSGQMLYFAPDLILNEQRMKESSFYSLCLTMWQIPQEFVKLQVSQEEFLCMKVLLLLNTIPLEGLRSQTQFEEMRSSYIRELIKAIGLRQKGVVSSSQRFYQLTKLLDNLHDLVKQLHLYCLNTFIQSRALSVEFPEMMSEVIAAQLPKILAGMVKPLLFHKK
The assay can be described thus: Cellular in vitro assay, GAL4-PR chimera luciferase reporter in CHO K1 cells (selectivity). Conditions: antagonism vs progesterone; CHO K1 GAL4-PR LBD luciferase reporter.
Description: as §1, §2, §3, §4, §5

As usually defined, the IC50 is the point on the concentration scale where inhibition reaches its midpoint. A lower IC50 goes with greater potency. For `CS(=O)(=O)Cc1cc(F)cc2c(C(CCC#N)c3ccc(Cl)cc3Cl)c[nH]c12` (stereo not drawn) [Example 63, 4-(2,4-Dichlorophenyl)-4-{5-fluoro-7-[(methylsulfonyl)methyl]-1H-indol-3-yl}butanonitrile], the values for the IC50 (in assay [1]; against androgen receptor (AR); in assay [2]) were 0.04 µM, 3.76 µM and 4.81 µM, respectively.

With `CS(=O)(=O)Cc1cccc2c(C(CCC#N)c3ccc(C(F)(F)F)cc3F)c[nH]c12` (stereo not drawn) [Example 68, 4-[2-Fluoro-4-(trifluoromethyl)phenyl]-4-{7-[(methylsulfonyl)methyl]-1H-indol-3-yl}butanonitrile], the IC50 in assay [1] came to 0.19 µM; against androgen receptor (AR) it was 5.07 µM; in assay [2] it was 3.91 µM.

For `CS(=O)(=O)Cc1cccc2c(C(CCC#N)c3ccc4ccccc4c3)c[nH]c12` (stereo not drawn) [Example 69, 4-{7-[(Methylsulfonyl)methyl]-1H-indol-3-yl}-4-(naphthalen-2-yl)butanonitrile], the IC50 in assay [1] worked out at 0.42 µM; against androgen receptor (AR), 5.22 µM; in assay [2], 6.59 µM.

In the case of `CS(=O)(=O)Cc1cccc2c(C(CCCC#N)c3ccc(Cl)cc3)c[nH]c12` (stereo not drawn) [Example 70, 5-(4-Chlorophenyl)-5-{7-[(methylsulfonyl)methyl]-1H-indol-3-yl}pentanonitrile], the IC50 in assay [1] came out at 0.25 µM; against androgen receptor (AR), 9.66 µM; in assay [2] it was 7.75 µM.

As to `CS(=O)(=O)Cc1c(F)ccc2c(C(CCC#N)c3ccc(Cl)cc3)c[nH]c12` (stereo not drawn) [Example 71, 4-(4-Chlorophenyl)-4-{6-fluoro-7-[(methylsulfonyl)methyl]-1H-indol-3-yl}butanonitrile], the IC50 in assay [1] worked out at 0.32 µM; on androgen receptor (AR), 3.99 µM; in assay [2], 4.47 µM.

As for `CSCc1cc(F)cc2c(C3(C4CC4)CCc4cc(F)ccc43)c[nH]c12` (stereo not drawn) [Example 94, 3-(1-Cyclopropyl-5-fluoro-2,3-dihydro-1H-inden-1-yl)-5-fluoro-7-[(methylsulfanyl)methyl]-1H-indole], the IC50 in assay [1] worked out at 0.16 µM; against androgen receptor (AR), 1.6 µM; in assay [2] it was 3.14 µM.

For the compound `CSCc1cccc2c(C(c3ccc(F)cc3)c3ccc(Cl)cc3)c[nH]c12` (stereo not drawn) [Example 100, 3-[(4-Chlorophenyl)(4-fluorophenyl)methyl]-7-[(methylsulfanyl)methyl]-1H-indole], the IC50 in assay [1] was found to be 0.46 µM; on androgen receptor (AR) it was 5.24 µM; in assay [2], 10 µM.

Consider `CSCc1cccc2c(C(c3ccc(F)cc3)c3ccc(Cl)cc3F)c[nH]c12` (stereo not drawn) [Example 104, 3-[(4-Chloro-2-fluorophenyl)(4-fluorophenyl)methyl]-7-[(methylsulfanyl)methyl]-1H-indole], for which the IC50 in assay [1] is 0.1 µM; on androgen receptor (AR), 5.01 µM; in assay [2] it was 8.56 µM.

Turning to `CC(c1ccc(Cl)cc1)(c1c[nH]c2c(CS(C)(=O)=O)cccc12)C1CC1C#N` (stereo not drawn) [Example 106, 2-[1-(4-Chlorophenyl)-1-{7-[(methylsulfonyl)methyl]-1H-indol-3-yl}ethyl]cyclopropanecarbonitrile], the IC50 in assay [1] came out at 0.04 µM; against androgen receptor (AR) it was 5.31 µM; in assay [2] it was 11.7 µM.

As for `CCC(CCO)(c1ccc(Cl)cc1)c1c[nH]c2c(CSC)cccc12` (stereo not drawn) [Example 140, 3-(4-Chlorophenyl)-3-{7-[(methylsulfanyl)methyl]-1H-indol-3-yl}pentan-1-ol], the IC50 is 0.27 µM in assay [1], 6.6 µM at androgen receptor (AR) and 10 µM in assay [2].

On to `CCC(CCC#N)(c1ccc(Cl)cc1)c1c[nH]c2c(CSC)cccc12` (stereo not drawn) [Example 157, 4-(4-Chlorophenyl)-4-{7-[(methylsulfanyl)methyl]-1H-indol-3-yl}hexanonitrile], for which the IC50 in assay [1] was 0.018 µM; at androgen receptor (AR) it was 3.39 µM; in assay [2] it was 2.14 µM.

Regarding `CSCc1cccc2c(C(C)(c3ccc(C(F)(F)F)cc3)C3CC3C#N)c[nH]c12` (stereo not drawn) [Example 177, 2-(1-{7-[(Methylsulfanyl)methyl]-1H-indol-3-yl}-1-[4-(trifluoromethyl)phenyl]ethyl)cyclopropanecarbonitrile], the IC50 in assay [1] came out at 0.077 µM; against androgen receptor (AR), 1.94 µM; in assay [2], 5.78 µM.

On to `CSCc1cc(F)cc2c(C(C)(c3ccc(Cl)cc3)C3CC3C#N)c[nH]c12` (stereo not drawn) [Example 179, 2-[1-(4-Chlorophenyl)-1-{5-fluoro-7-[(methylsulfanyl)methyl]-1H-indol-3-yl}ethyl]cyclopropanecarbonitrile], for which the IC50 turned out to be 0.1 µM in assay [1], 2.03 µM at androgen receptor (AR) and 1.93 µM in assay [2].

On to `CS(=O)(=O)Cc1cccc2c(C3(C4CC4)CCOc4cc(F)cc(F)c43)c[nH]c12` (stereo not drawn) [Example 219, 3-(4-Cyclopropyl-5,7-difluoro-3,4-dihydro-2H-chromen-4-yl)-7-[(methylsulfonyl)methyl]-1H-indole], for which the IC50 in assay [1] came out at 0.042 µM; against androgen receptor (AR) it was 2.73 µM; in assay [2], 8.12 µM.

In the case of `CSCc1cc(F)cc2c(C(c3ccc(C)cc3)C3CC3C#N)c[nH]c12` (stereo not drawn) [Example 260, 2-[{5-Fluoro-7-[(methylsulfanyl)methyl]-1H-indol-3-yl}(4-methylphenyl)methyl]cyclopropane-carbonitrile], the IC50 amounted to 0.039 µM in assay [1], 9.03 µM against androgen receptor (AR) and 5.23 µM in assay [2].
